Columns and labels:
Assay type in all cases: in vivo
[1] = test system: lower urinary tract obstruction model of rats (female); assay: Test Example 1: urination function in lower urinary tract obstruction model of female rats; conditions: oral once a day 2 weeks, Compound B 3 mg/kg and 10 mg/kg
Source text: A lower urinary tract obstruction model of rats was used as a test system. A test substance was orally administered to the lower urinary tract obstruction model repeatedly over two (2) weeks to examine the action on the urination function in the lower urinary tract obstruction model.
More specifically, the rats (female, Crl:CD(SD), 8-week-old; Charles River Laboratories Japan, Inc.) were operated to form lower urinary tract obstruction and repeatedly received oral administration of the test substance at a frequency of once a day over two (2) weeks. After the completion of the administration, each rat was subjected to bladder catheterization under anesthesia, cystometry under no anesthesia, then cystometry under urethane anesthesia, and euthanasia under deep anesthesia, and the tissues (bladder, kidney) of the rat were extracted or surgically removed. As a normal group, the rats without operation for forming lower urinary tract obstruction were used.
The test system, the test substances, and the dosage are as follows. • Normal group: 0.5 v/v % Polysorbate 80 solution, 10 mL/kg (n=6) • Solvent group (control group): 0.5 v/v % Polysorbate 80 solution, 10 mL/kg (n=15) • Group A: Compound A, 10 mg/kg (n=15) • Group B3: Compound B, 3 mg/kg (n=7) • Group B10: Compound B, 10 mg/kg (n=7)
After urination, the residual urine was aspirated from the outlet end of the catheter placed in the bladder to measure the volume (mL) of the residual urine.
After urination, the weight of the voided urine was measured to determine the voided volume (g=mL), and then the urination efficiency was calculated by the following equation: Urination efficiency (%)=[(Voided volume (mL))/(Voided volume (mL)+Residual urine volume (mL))]×100
Bladder capacity (mL)=Voided volume (mL)+Residual urine volume (mL)
Moreover, the wet weight of the extracted bladder and that of the extracted kidney were measured.

[2] = test system: rats having the urination disorder associated with diabetes; assay: Test Example 6: urination disorder model associated with streptozocin-induced diabetes, compound A versus compound C; conditions: STZ diabetes model
Protocol: As described below, a model of a urination disorder associated with streptozocin-induced diabetes was prepared as a urination disorder model in accordance with Test Example 4 to evaluate the effects of the compound A and the compound C on a urination disorder. This model has no benign prostatic hyperplasia and is a model of a urination disorder associated with neuropathy and smooth muscle contraction disorder.
The body weights of Rats (male, Crl:CD(SD), 5-week-old; Charles River Laboratories Japan, Inc.) were measured. On the basis of the body weight, the rats were grouped or divided into two (2) groups. The day after the rats were grouped, a first group received intraperitoneal administration of a citrate buffer (pH 4.5) (10 mL/kg) having a concentration of 0.1 mmol/L, and a second group received intraperitoneal administration of streptozocin (STZ; Sigma-Aldrich) (50 mg/kg). Streptozocin (STZ) was administered in the form of a solution of streptozocin having a concentration of 5 mg/mL in the citrate buffer.
About one (1) week after streptozocin (STZ) was administered, the body weight and the fasting blood glucose were measured. In the streptozocin (STZ) administration group (the second group), individuals having a fasting blood glucose level of not less than 300 mg/dL were used as animals with induced diabetes. These animals with induced diabetes are a model having no abnormality of the prostate (having no benign prostatic hyperplasia). On the basis of the body weight and the fasting blood glucose level, the animals (models) with induced diabetes were grouped or divided into three (3) groups by randomized, multivariable block allocation.
To the three model groups with induced diabetes, a 0.5 v/v % Polysorbate 80 solution (0.5% P) (10 mL/kg), the compound A (3 mg/kg), and the compound C (dutasteride) (0.3 mg/kg) were orally administered, respectively, wherein the administration schedule in all groups was a frequency of once a day, only on weekdays, over four (4) weeks. Moreover, to the above-mentioned first group, a 0.5 v/v % Polysorbate 80 solution (0.5% P) (10 mL/kg) was orally administered in the same administration schedule (normal group). On the last day of administration, a cannula was inserted into and secured to the dome of the bladder under isoflurane anesthesia, and cystometry (Cystometogram, CMG) was conducted in the order of under awake condition and under urethane anesthesia to measure the intravesical pressure, the voided volume, and the residual urine volume. After the completion of the measurement, the blood was collected under deep isoflurane anesthesia, and then the prostate (ventral prostate, dorsolateral prostate) was extracted and each was weighed. Moreover, the blood glucose level in the collected blood was measured.
Normal group: citrate buffer 10 mL/kg (intraperitoneal administration), 0.5% P 10 mL/kg (oral administration) (n=10) • Solvent group (control group): STZ 50 mg/kg (intraperitoneal administration), 0.5% P 10 mL/kg (oral administration) (n=10) • Group A3: STZ 50 mg/kg (intraperitoneal administration), Compound A 3 mg/kg (oral administration) (n=10) • Group C0.3: STZ 50 mg/kg (intraperitoneal administration), Compound C (dutasteride) 0.3 mg/kg (oral administration) (n=10)
Urination parameter: In the same manner as in Test Example 4, the residual urine volume (mL) and the urination efficiency (%) were determined as urination parameters in each urination, and the average value of two measurements was taken as a measured value of each individual.
Prostate weight: In the same manner as in Test Example 4, the weight of the prostate (ventral prostate, dorsolateral prostate, and whole) was converted to a tissue weight per 100 g of the body weight. For Group A3, which received the compound A, and Group C0.3, which received the compound C, the inhibition rate of the weight of the prostate relative to the weight of the prostate in the solvent group was calculated (with one decimal place). […]

ovariectomized rats = assay: Test Example 5: antiprogesterone activity, uterine weight associated with rat deciduoma formation; conditions: Rattus norvegicus, 192 h; ovariectomized rats, estrone + progesterone, oral 3 mg/kg once a day 8 days, compared with the solvent group; read-out: inhibition rate (increase of uterine weight, deciduoma formation)
Protocol: For the compound A and the compound D (mifepristone), the antiprogesterone activity was measured. Specifically, a sex hormone and a test substance were repeatedly administered to ovariectomized rats as a test system to examine the antiprogesterone action (antiprogesterone activity) based on, as an index, the fluctuation of the uterine weight (the inhibitory action relative to the increase of the weight) associated with rat deciduoma formation.
More specifically, rats (female, Crl:CD(SD), 5-week-old: Charles River Laboratories Japan, Inc.) were subjected to ovariectomy, and from one (1) week after the ovariectomy, a high dose estrone of 5 μg/one animal was hypodermically administered to the rats once a day for three (3) days. From the day after one day rest period, the rats received, once a day over eight (8) days, hypodermic administration of a low dose estrone (1 μg/one animal), intramuscular administration of progesterone (6 mg/kg), and oral administration of a test substance. In the middle of the administration, on Day 4 of the start of administration, the rats were subjected to a stimulation treatment of decidualization reaction to the right uterus. The day after the final administration, the uterine weight (right uterine body) was measured (n=6). Group E was subjected to ovariectomy and a stimulation treatment of decidualization reaction but was not subjected to a hormone treatment.
Group E: rats with ovariectomy without hormone treatment 0.5 v/v % Polysorbate 80 solution, 10 mL/kg (n=6) • Solvent group (control group): 0.5 v/v % Polysorbate 80 solution, 10 mL/kg (n=6) • Group A3: Compound A, 3 mg/kg (n=6) • Group A10: Compound A, 10 mg/kg (n=6) • Group A30: Compound A, 30 mg/kg (n=6) • Group D: Compound D (mifepristone), 3 mg/kg (n=6)

[3] = female rats, lower urinary tract obstruction, vs control group
[4] = Compound C 0.3 mg/kg, in comparison with the solvent group
[5] = Compound C oral 0.3 mg/kg, 4 weeks
[6] = Compound C oral 0.3 mg/kg, relative to solvent group

For `CC(=O)O[C@]1(C(C)=O)CC[C@H]2[C@@H]3C=C(Cl)C4=CC(=O)OC[C@]4(C)[C@H]3CC[C@@]21C` [Compound B, 17α-acetoxy-6-chloro-2-oxa-4,6-pregnadiene-3,20-dione, reference compound], the survival rate ([1]; female lower urinary tract obstruction rats) was “decreased”, the “wet weights of the bladder and the kidney” value ([1]; female rats, lower urinary tract obstruction) was “rather in the direction of increasing” and the residual urine volume ([1]; female rats, lower urinary tract obstruction, vs control (solvent) group) was “significantly increased”. For the same molecule, the bladder capacity [1, 3] was “significantly increased” and the urination efficiency [1, 3] was “reduced”.

For `C[C@]12C=CC(=O)N[C@@H]1CC[C@@H]1[C@@H]2CC[C@]2(C)[C@@H](C(=O)Nc3cc(C(F)(F)F)ccc3C(F)(F)F)CC[C@@H]12` [Compound C, dutasteride, reference compound], the “position in nomogram analysis (bladder contraction force)” value ([2]; Compound C 0.3 mg/kg) was “at almost the same position as the solvent group”, the “therapeutic effect on diabetes” value ([2]; Compound C 0.3 mg/kg) was “no therapeutic effect” and the “weights of the ventral prostate, the dorsolateral prostate, and the whole prostate” value ([2]; Compound C 0.3 mg/kg, compared with the solvent group (P<0.05)) was “significant decrease”. For the same molecule, the “residual urine volume, cystometry (CMG) under awake condition” value [2, 4] was “did not statistically affect”, the “urination efficiency, cystometry (CMG) under awake condition” value [2, 4] was “did not statistically affect” and the “effect on the blood glucose level” value ([2]; Compound C 0.3 mg/kg, vs solvent group) was “did not statistically affect”. For the same molecule, the “Prostate weight, ventral prostate” value ([2]; Compound C (dutasteride) oral 0.3 mg/kg, 4 weeks) was 58.4 ± 8.4 mg/100 g body weight, the Blood glucose level [2, 5] was 984.2 ± 282.0 mg/dL and the “Prostate weight, dorsolateral prostate” value [2, 5] was 40.5 ± 6.3 mg/100 g body weight. The “Prostate weight, whole” value [2, 5] was 98.9 ± 12.2 mg/100 g body weight, the “Dorsolateral prostate atrophy rate” value [2, 6] was “(37.5%)” and the “Ventral prostate atrophy rate” value [2, 6] was “(42.7%)”. The “Whole prostate atrophy rate” value [2, 6] was “(40.7%)”.

In the case of `CC#C[C@]1(O)CC[C@H]2[C@@H]3CCC4=CC(=O)CCC4=C3[C@@H](c3ccc(N(C)C)cc3)C[C@@]21C` [Compound D, mifepristone, reference compound], the inhibition at 3 mg/kg (ovariectomized rats) is reported as 89.5%.
